As usually defined, the IC50 is the point on the concentration scale where inhibition reaches its midpoint. Usually viability stands for a per cent measure of how many cells are alive, often set against a control. For orientation: melting point means the temperature of the solid-liquid transition.

In series [1] the test system is B16F1. The experiment in a line: MTS assay, B16F1 melanoma cells. The conditions noted are these: for IC50: MTS, 24 h treatment. It counts as cell-based. As for the experimental part:
(§1) Hepatocellular carcinoma (Hep3B and HepG2), cervical adenocarcinoma (HeLa), breast carcinoma (MCF-7), melanoma (B16F1), colorectal adenocarcinoma (Caco-2), and colon adenocarcinoma (Colo205), as well as human hepatic stellate (LX-2) in addition to the normal cell line (Hek293T), were used as cancer and normal cell lines and were cultured in RPMI-1640 media and supplemented with 10.0% fetal bovine serum, 1.0% l-glutamine and 1.0% Penicillin/Streptomycin antibiotics. After that, the cells matured in a moist atmosphere with 5.0% CO2 at 37 °C. In a 96-well plate, the cells were seeded at 2.5 × 10^4 cells/well. After 72 h, the cells were confluent, the media was changed, and then the cells were incubated with various concentrations (300, 100, 50, 10, and 1 µM), as well as lower concentrations (500, 100, and 50 nM) were used, especially for compound 2e against the B16-F1 cancer cell line to calculate accurate IC50 values for the evaluated compounds (2a–2f) for 24 h. The viability of cells was assessed by the Cell Tilter 96® Aqueous One Solution Cell Proliferation (MTS) Assay according to the manufacturer’s procedures (Promega Corporation, Madison, WI). However, at the end of the treatment, about 20 μl/100 μl of MTS solution/media was added to each well and for 2 h, they were incubated at 37 °C. Finally, the absorbance was measured at 490 nm.

A further series has as its system Colo205. The experiment in a line: MTS assay, Colo205 colon adenocarcinoma cells. It counts as cell-based. The conditions noted are these: for IC50: MTS, 24 h treatment; for viability at 50 µM: COLO 205, read-out: Cell viability percentage, Colo205. The method, then:
as §1
(In general: Tetrazolium dyes change colour on reduction, which living cells bring about.)

A further series concerns HepG2. The experiment in a line: MTS assay, HepG2 hepatocellular carcinoma cells. Conditions: for viability at 50 µM: read-out: Cell viability percentage, HepG2; for IC50: MTS, 24 h treatment. It counts as cell-based. The method, then:
as §1

In another series the test system is CaCo-2. The experiment in a line: MTS assay, CaCo-2 colorectal adenocarcinoma cells. The class given is cell-based. As for the experimental part:
as §1

For another series, the system named is HeLa. The experiment in a line: MTS assay, HeLa cervical adenocarcinoma cells. It counts as cell-based, Human. Conditions: 24 h treatment. As for the experimental part:
as §1

A further series deals with Hep3B. The series can be described thus: MTS assay, Hep3B hepatocellular carcinoma cells. It counts as cell-based. The conditions noted are these: 24 h treatment. The method, then: as §1
In a further series the test system is MCF-7. The experiment in a line: MTS assay, MCF-7 breast carcinoma cells. It counts as cell-based, Human. The method, then:
as §1

The subject of the next series is Hek293t. The series can be described thus: MTS assay, normal cell line Hek293t. The class given is cell-based. The conditions noted are these: 24 h treatment. As for the experimental part: as §1
Series [2] relates to B16F1, Colo205, HepG2, and HeLa cancer cell lines. The series can be described thus: MTS assay, IC50 range over a panel of cancer cell lines. It counts as cell-based. As for the experimental part:
as §1

Series [3] concerns B16F1. The experiment in a line: MTS assay, B16F1 melanoma cells. It counts as cell-based. The conditions noted are these: compound versus its nano-emulgel at 1, 0.5, 0.1, 0.05, and 0.01 µM.
In series [4] the test system is human hepatic stellate cell (HSC) line LX-2. The experiment in a line: Anti-fibrotic activity, MTS viability of LX-2 cells. It counts as cell-based. Conditions: 1 µM. As for the experimental part:
Hepatocellular carcinoma (Hep3B and HepG2), cervical adenocarcinoma (HeLa), breast carcinoma (MCF-7), melanoma (B16F1), colorectal adenocarcinoma (Caco-2), and colon adenocarcinoma (Colo205), as well as human hepatic stellate (LX-2) in addition to the normal cell line (Hek293T), were used as cancer and normal cell lines and were cultured in RPMI-1640 media and supplemented with 10.0% fetal bovine serum, 1.0% l-glutamine and 1.0% Penicillin/Streptomycin antibiotics. After that, the cells matured in a moist atmosphere with 5.0% CO2 at 37 °C. In a 96-well plate, the cells were seeded at 2.5 × 10^4 cells/well. […] The viability of cells was assessed by the Cell Tilter 96® Aqueous One Solution Cell Proliferation (MTS) Assay according to the manufacturer’s procedures (Promega Corporation, Madison, WI). […] Finally, the absorbance was measured at 490 nm.
To explore the anti-fibrotic effects of these compounds on human hepatic stellate cell (HSC) line LX-2, the viability of LX-2 cells following various compounds' treatment was determined by the MTS assay.

The mark [5] stands for this setting: Homo sapiens, Caco-2, 24 h treatment.
Where [6] appears, read: Homo sapiens, MCF7, 24 h treatment.

Where “and” joins values, the source holds several entries; their conditions need not be identical. Equal entries are not always repeated. Where two headings read alike, the source gives them in different places. A value given as a limit tells only on which side of the number the result lay.

Turning to `COc1cc(NC(=O)c2c(-c3ccccc3)noc2C)c(OC)cc1Cl` [2a, N-(4–Chloro-2,5-dimethoxyphenyl)-5-methyl-3-phenylisoxazole-4–Carboxamide], the IC50 with B16F1 [1] (Mus musculus, B16-F1) worked out at 29.7 ± 2.12 µM; with Colo205 (Homo sapiens, COLO 205, 24 h), 9.18 µM; with Colo205, 9.18 ± 0.88 µM; in the series with HepG2 (Homo sapiens, HepG2), 7.55 ± 0.79 µM; in the series with CaCo-2 (setting [5]), 129 ± 2.47 µM; in the series with HeLa (Homo sapiens, HeLa), 40.8 ± 1.25 µM. For the same compound, the IC50 was over 200 µM in the series on Hep3B (Homo sapiens, Hep3B); over 200 µM in the series with MCF-7 (setting [6]); 2.54 ± 1.4 µM in the series on Hek293t (Homo sapiens, HEK-293T); 7.54 to 129 µM in series [2] (range over five cancer cell lines, read-out: IC50 range on five cancer cell lines); 7.55 to 40.9 µM in series [2] (range over four cancer cell lines, read-out: IC50 range against B16F1, Colo205, HepG2, and HeLa). Also, the viability at 50 µM in the series on Colo205 (Homo sapiens) stood at 39.4%; with HepG2 (Homo sapiens, HepG2) it was 29.2%.
As for `Cc1onc(-c2ccccc2)c1C(=O)Nc1cccc(C(F)(F)F)c1` [2b, 5-Methyl-3-phenyl-N-(3-(trifluoromethyl)phenyl) isoxazole-4–Carboxamide], the IC50 in the series on B16F1 [1] is 42.9 ± 1.55 µM; in the series with Colo205, over 200 µM; with HepG2 it was 53.6 ± 2.04 µM; with CaCo-2 (24 h treatment), over 200 µM; with HeLa, over 200 µM; in the series with Hep3B it was over 200 µM. Also, the half-maximal inhibitory concentration (IC50) with MCF-7 (24 h treatment) is over 200 µM; with Hek293t, 148 ± 2.74 µM.
Compound `COc1ccccc1Oc1ccc(NC(=O)c2c(-c3ccccc3)noc2C)cc1` [2c, N-(4-(2-Methoxyphenoxy)phenyl)-5-methyl-3-phenylisoxazole-4–Carboxamide] registered a melting point of 179 to 180 °C. This compound registered a 50% inhibitory concentration (IC50) in the series with B16F1 [1] (Mus musculus, B16-F1) of 21.1 ± 0.78 µM. Also, half-maximal inhibition with Colo205 (Homo sapiens, COLO 205, 24 h) (IC50) required 183 ± 2.05 µM. The same compound gave an IC50 with HepG2 (Homo sapiens, HepG2) of 120 ± 2.19 µM. In addition, the IC50 with CaCo-2 (setting [5]) was over 200 µM. This compound also displayed an IC50 in the series with HeLa (Homo sapiens, HeLa) of over 200 µM. The IC50 in the series on Hep3B (Homo sapiens, Hep3B) is over 200 µM. In the series on MCF-7 (setting [6]), this compound displayed a half-maximal inhibitory concentration (IC50) of over 200 µM. Moreover, in the series with Hek293t (Homo sapiens, HEK-293T), it took 20.2 ± 1.32 µM to reach half-maximal inhibition (IC50).
For the compound `CSc1ccc(NC(=O)c2c(-c3ccccc3)noc2C)cc1` [2d, 5-Methyl-N-(4-(methylthio)phenyl)-3-phenylisoxazole-4–Carboxamide], the melting point fell in the range of 144 to 146 °C. The compound further came in with an IC50 in the series on B16F1 [1] (Mus musculus, B16-F1) of 39.8 ± 1.45 µM. Further, the half-maximal inhibitory concentration (IC50) with Colo205 (Homo sapiens, COLO 205, 24 h) is 216.4 ± 1.58 µM. In the series with HepG2 (Homo sapiens, HepG2), the IC50 was determined as 37.9 ± 2.07 µM. Besides, the IC50 with CaCo-2 (setting [5]) is over 200 µM. This compound gave a half-maximal inhibitory concentration (IC50) in the series on HeLa (Homo sapiens, HeLa) of over 200 µM. Further, in the series on Hep3B (Homo sapiens, Hep3B), the concentration for half-maximal inhibition (IC50) was over 200 µM. Besides, in the series on MCF-7 (setting [6]), the half-maximal inhibitory concentration (IC50) was over 200 µM. In the series on Hek293t (Homo sapiens, HEK-293T), this compound gave an IC50 of over 200 µM.
As to `Cc1onc(-c2ccccc2)c1C(=O)Nc1ccc(OC(F)(F)F)cc1` [2e, 5-Methyl-3-phenyl-N-(4-(trifluoromethoxy)phenyl) isoxazole-4–Carboxamide], the “Cell viability percentage, B16F1” value with B16F1 [1] (50 µM) is listed as 18.42%. In addition, the half-inhibitory concentration (IC50) with B16F1 [1] is 0.079 µM; in the series on Colo205 it was over 200 µM; in the series on HepG2 it was over 200 µM; in the series with CaCo-2 (24 h treatment) it was over 200 µM; in the series with HeLa, over 200 µM; in the series with Hep3B it was over 200 µM. For the same compound, the half-maximal inhibitory concentration (IC50) is over 200 µM in the series with MCF-7 (24 h treatment), 190 ± 2.67 µM in the series on Hek293t and 0.079 µM in the series with B16F1 [3].
Consider `Cc1onc(-c2ccccc2)c1C(=O)Nc1ccc(-c2cccs2)cc1` [2f, 5-Methyl-3-phenyl-N-(4-(thiophen-2-yl)phenyl) isoxazole-4–Carboxamide], for which the “Cell viability percentage, B16F1” value with B16F1 [1] (50 µM) amounted to 34.03%. Moreover, the 50% inhibitory concentration (IC50) is 12.7 ± 1.01 µM with B16F1 [1]; 75.4 ± 2.41 µM in the series on Colo205; 38.4 ± 1.07 µM in the series on HepG2; over 200 µM in the series on CaCo-2 (24 h treatment); over 200 µM in the series with HeLa; 54.6 ± 2.11 µM in the series on Hep3B. Besides, the figures for the IC50 in the series with MCF-7 (24 h treatment) and in the series on Hek293t were over 200 µM and 7.91 ± 0.61 µM, respectively. In addition, in series [4], the “Cellular viability of LX-2” value turned out to be 66.55%.
For the compound `O=c1[nH]cc(F)c(=O)[nH]1` [5-FU], in series [4], the “Cellular viability of LX-2” value is 95% and 94.64%.
For `COc1cccc2c1C(=O)c1c(O)c3c(c(O)c1C2=O)C[C@@](O)(C(=O)CO)C[C@@H]3O[C@H]1C[C@H](N)[C@H](O)[C@H](C)O1` [Dox, Doxorubicin, reference compound], the viability at 50 µM turned out to be 21.8% with B16F1 [1] (Mus musculus, B16-F1, 50 µM, read-out: Cell viability percentage, B16F1); 9.89% in the series on Colo205 (Homo sapiens); 9.46% in the series on HepG2 (Homo sapiens, HepG2). This compound also returned a half-maximal inhibitory concentration (IC50) with B16F1 [1] (Mus musculus, B16-F1) of 0.056 µM.

(Values after PMC9229817, “Synthesis of novel isoxazole–carboxamide derivatives as promising agents for melanoma and targeted nano-emulgel conjugate for improved cellular permeability” (BMC Chemistry, 2022).)
